Values after ≈ are worked out from the molar mass of the structure shown. Values joined by “and” are separate entries in the source; they are usually repeats but may differ in a detail not shown here. Equal values may be shown once. Read-outs that look alike come from different tables or passages of the source.
Assays:
[1] = system: NCI-H358M (bronchoalveolar lung carcinoma) cells; test: MTT cytotoxicity assay, NCI-H358M; type: cell-based; settings: Homo sapiens, 72h exposure
Description: (§1) This experiment evaluated the cytotoxicity of aminonaphthoquinones (ANPQs) against human cancer cells, in vitro. This analysis is part of an initial screening for determination of the potential antitumor of these samples. The human cancer cell strains used were SF-295 (glioblastoma-human), MDAMB-435 (melanoma), HCT-8 (colon), HCT-116 (colon), HL-60 (leukemia), OVCAR-8 (ovarian cancer), NCI-H358M (human bronchoalveolar lung carcinoma) and PC3-M (highly metastatic prostate cancer cell line). All cancer cells were provided by the National Cancer Institute (Rockville, MD, USA) and were cultured in RPMI 1640 supplemented with 10% fetal bovine serum and 1% antibiotics, maintained at 37 °C and atmosphere containing 5% CO2. The peripheral blood mononuclear cells (PBMC) were isolated by gradient of density (Ficoll-Hypaque) and cultivated in RPMI 1640 medium, supplemented with bovine foetal serum (20%), antibiotic (1%) and phytohemagglutinin (4%). The cells were maintained at 37 °C and atmosphere containing 5% CO2.
(§2) The different samples of ANPQs were diluted in pure sterile DMSO. The substances were tested at a concentration of 5 µg·mL^−1. In order to determine the IC50 the substances were tested at increasing concentrations in serial dilutions (5–0.010 µg·mL^−1).
(§3) Analysis of cytotoxicity by the MTT method has been used in the screening program at the National Cancer Institute of the United States (NCI), which tests over 10,000 samples per year. It is a rapid, sensitive and inexpensive test. It was first described by Mosman as having the ability to analyze the viability and the metabolic state of cells. It is a colorimetric analysis based on conversion of the salt 3-(4,5-dimethyl-2-thiazole)-2,5-diphenyl-2H-tetrazolium bromide (MTT) to formazan-blue by the mitochondrial enzymes found only in metabolically active cells. The study of the cytotoxicity by MTT method allows easily defining the cytotoxicity but not the mechanism of action.
(§4) The cells were plated at a concentration of 0.1 × 10^6 cell mL^−1 to OVCAR-8, NCI-H358M, PC3-M, SF-295 and MDA-MB435 strains, 0.7 × 10^5 cell mL^−1 to HCT-8 and HCT-116 strains, 0.3 × 10^6 to HL-60 strain, 1.0 × 10^6 cell mL^−1 to PBMC. The plates were incubated for 72 h at 5% CO2 at 37 °C. After, they were centrifuged and the supernatant removed. Then the solution of MTT (tetrazolium salt, 150 µL) was added, and the plates were incubated for 3 h. The absorbance was read after dissolving the precipitate with 150 µL of pure DMSO in a spectrophotometer plate at 595 nm.

[2] = system: SF-295 (glioblastoma) cells; test: MTT cytotoxicity assay, SF-295; type: cell-based; settings: Homo sapiens; for IC50: SF-295, 72 h, SF-295, 72h exposure; for inhibition at 5 µg/mL: SF-295, 5 µg/mL, 72 h, MTT, read-out: Percentage of inhibition of cell growth (GI%), average
Description: as §1, §2, §3, §4

HCT-8 (colon) cells [3] = test: MTT cytotoxicity assay, HCT-8; type: cell-based; settings: Homo sapiens; for IC50: HCT-8, 72 h, HCT-8, 72h exposure; for inhibition at 5 µg/mL: HCT-8, 5 µg/mL, 72 h, MTT, read-out: Percentage of inhibition of cell growth (GI%), average
Description: as §1, §2, §3, §4

HCT-116 (colon) cells = test: MTT cytotoxicity assay, HCT-116; type: cell-based; settings: Homo sapiens; HCT-116, 72h exposure
Description: as §1, §2, §3, §4

PC3-M (prostate) cells = test: MTT cytotoxicity assay, PC3-M; type: cell-based; settings: Homo sapiens, PC-3M, 72 h, 72h exposure
Description: as §1, §2, §3, §4

HL-60 (leukemia) cells [4] = test: MTT cytotoxicity assay, HL-60; type: cell-based; settings: Homo sapiens; HL-60, 72h exposure
Description: as §1, §2, §3, §4

MDAMB-435 cells = test: MTT cytotoxicity assay, MDAMB-435; type: cell-based; settings: Homo sapiens; for IC50: MDA-MB-435, 72 h, MDAMB-435, 72h exposure; for inhibition at 5 µg/mL: MDA-MB-435, MDAMB-435, 5 µg/mL, 72 h, MTT, read-out: Percentage of inhibition of cell growth (GI%), average
Description: as §1, §2, §3, §4

[5] = system: OVCAR-8 (ovarian cancer) cells; test: MTT cytotoxicity assay, OVCAR-8; type: cell-based; settings: Homo sapiens; OVCAR-8, 72h exposure
Description: as §1, §2, §3, §4

[6] = MTT cytotoxicity assay, PBMC; type: cell-based; settings: peripheral blood mononuclear cells (PBMC); PBMC normal cells, 72h exposure
Description: as §1, §2, §3, §4

HL-60 (leukemia) cells [7] = system: HL-60 (leukemia) cells; parameters: method as in PMID 16042338; settings: cited from earlier work
HCT-8 (colon) cells [8] = system: HCT-8 (colon) cells; parameters: method as in PMID 16042338; settings: cited from earlier work

Compound | IC50 [1] | IC50 [2] | inhibition at 5 µg/mL [2] [%] | IC50 (HCT-8 (colon) cells [3]) | inhibition at 5 µg/mL (HCT-8 (colon) cells [3]) [%] | IC50 (HCT-116 (colon) cells) | IC50 (PC3-M (prostate) cells) | IC50 (HL-60 (leukemia) cells [4]) | IC50 (MDAMB-435 cells) | inhibition at 5 µg/mL (MDAMB-435 cells) [%] | IC50 [5] | IC50 at 72 h [6] | melting point | IC50 (HL-60 (leukemia) cells [7]) [nM] | IC50 (HCT-8 (colon) cells [8]) [µg/mL]
C[C@H](NC1=CC(=O)c2ccccc2C1=O)C(=O)O [compound 5, N-(1,4-Dioxo-1,4-dihydronaphthalen-2-yl)-L-alanine] | 0.9 µg/mL and 3.36 µM | 2560 nM | 83.8 | 3380 nM | 84.1 | 1.11 µg/mL and 4.52 µM | 1.61 µg/mL (≈ 6.57 µM) | 1.05 µg/mL and 4.27 µM | 1990 nM | 100 | 2.36 µg/mL and 9.61 µM | 7.34 µg/mL and 29.9 µM | – | – | –
O=C(O)CCNC1=CC(=O)c2ccccc2C1=O [compound 3, 3N-(1,4-Dioxo-1,4-dihydronaphthalen-2-yl)propanoic acid] | – | – | 56 | – | 56 | – | – | – | – | 26.4 | – | – | 198 to 200 °C | – | –
O=C1C=C(N2CCC[C@H]2C(=O)O)C(=O)c2ccccc21 [compound 4, N-(1,4-Dioxo-1,4-dihydronaphthalen-2-yl)-L-proline] | – | – | 59.3 | – | 59.1 | – | – | – | – | 36.7 | – | – | 164 to 167 °C (dec.) | – | –
CCOC(=O)[C@H](C)NC1=CC(=O)c2ccccc2C1=O [compound 9, Ethyl [(S) 2-(1,4-dioxo-1,4-dihydronaphthalen-2-ylamino)] propanoate] | 0.98 µg/mL and 3.58 µM | 1.68 µg/mL and 6.13 µM | 75.1 | 1.33 µg/mL and 4.86 µM | 75.4 | 3.11 µg/mL and 11.4 µM | 2.62 µg/mL and 9.57 µM | 1.74 µg/mL and 6.35 µM | 1.18 µg/mL and 4.31 µM | 100 | 1.88 µg/mL and 6.87 µM | 17.6 µg/mL and 64.3 µM | 65 to 68 °C | – | –
CCOC(=O)CCCNC1=CC(=O)c2ccccc2C1=O [compound 10, Ethyl 4-(1,4-dioxo-1,4-dihydronaphthalen-2-ylamino)butanoate] | – | – | 49.2 | – | 49.6 | – | – | – | – | 59.1 | – | – | – | – | –
COc1cccc2c1C(=O)c1c(O)c3c(c(O)c1C2=O)C[C@@](O)(C(=O)CO)C[C@@H]3O[C@H]1C[C@H](N)[C@H](O)[C@H](C)O1 [Dox, Doxorubicin, reference compound] | 0.9 µg/mL and 1.65 µM | 0.23 µg/mL | – | 0.07 µg/mL and 130 nM | – | 0.01 µg/mL and 20 nM | 0.2 µg/mL and 360 nM | 0.02 µg/mL and 30 nM | 0.48 µg/mL and 830 nM | – | 0.26 µg/mL (≈ 0.478 µM) | 0.23 µg/mL and 420 nM | – | – | –
O=C(O)CCCNC1=CC(=O)c2ccccc2C1=O [compound 11, 4-(1,4-Dioxo-1,4-dihydronaphthalen-2-ylamino)butanoic acid] | – | – | 61.2 | – | 61.4 | – | – | – | – | 11.1 | – | – | – | – | –
O=C1C=C(N[C@@H](Cc2ccccc2)C(=O)O)C(=O)c2ccccc21 [compound 6, N-(1,4-Dioxo-1,4-dihydronaphthalen-2-yl)-L-phenylalanine] | 0.82 µg/mL and 2.54 µM | 0.65 µg/mL and 2.01 µM | 86.1 | 1.59 µg/mL and 4.94 µM | 86.1 | 2.15 µg/mL and 6.67 µM | 1.7 µg/mL and 5.28 µM | 1.31 µg/mL and 4.07 µM | 1.46 µg/mL and 4.53 µM | 100 | 1.87 µg/mL and 5.81 µM | 12.2 µg/mL and 37.8 µM | – | – | –
CCOC(=O)CNC1=CC(=O)c2ccccc2C1=O [compound 7, Ethyl 2N-(1,4-dioxo-1,4-dihydronaphthalen-2-yl)acetate] | 0.64 µg/mL and 2.46 µM | 0.83 µg/mL and 3.19 µM | 99.5 | 1.84 µg/mL and 7.09 µM | 99.5 | 2.13 µg/mL and 8.2 µM | 1.63 µg/mL and 6.28 µM | 1.24 µg/mL and 4.77 µM | 1.33 µg/mL and 5.12 µM | 100 | 2 µg/mL and 7.7 µM | 9 µg/mL and 34.7 µM | 93 to 95 °C | – | –
Cc1cc(=O)c2c(O)c([C@@H]3O[C@H](CO)[C@@H](O)[C@H](O)[C@H]3O)c(O)cc2o1 [biflorin] | – | – | – | – | – | – | – | – | – | – | – | – | – | 1950 | 0.88 (≈ 2.48 µM)
O=C(O)CNC1=CC(=O)c2ccccc2C1=O [compound 2, 2N-(1,4-Dioxo-1,4-dihydronaphthalen-2-yl)acetic acid] | > 5 µg/mL and > 21.6 µM | 0.57 µg/mL and 2.46 µM | 81.1 | 0.89 µg/mL and 3.84 µM | 81.7 | 1.31 µg/mL and 5.66 µM | > 5 µg/mL and > 21.6 µM | 0.7 µg/mL and 3.02 µM | 1.21 µg/mL and 5.23 µM | 100 | 3.89 µg/mL and 16.8 µM | 5.51 µg/mL and 23.8 µM | – | – | –
CCOC(=O)CCNC1=CC(=O)c2ccccc2C1=O [compound 8, Ethyl 3N-(1,4-dioxo-1,4-dihydronaphthalen-2-yl)propanoate] | – | – | 32.7 | – | 28.2 | – | – | – | – | 11.7 | – | – | 120 to 122 °C | – | –

Source: PMC6271085, “Synthesis and Cytotoxic Evaluation of a Series of 2-Amino-Naphthoquinones against Human Cancer Cells” (Molecules, 2014)
